Bridge positions count the residues as written; N and C are the ends. Square brackets hold non-standard residues; d marks the D form. Peptide text beside a SMILES is read from it. S5 = C=CCCC[C@](C)(N)C(=O)O; Nle = CCCC[C@H](N)C(=O)O
Experiments:
[1] = molecular target: T1, flag-tagged HIF1α (AA 786-826) / His6-tagged p300 (AA 323-423) complex (Homo sapiens, UniProt Q09472); assay: HIF1α p300 displacement assay (TR FRET, +CHAPS); assay type: binding; conditions: read-out: IC50 (nM) (HIF1α_p300 Displacement + CHAPS)
T1 construct: His6-tagged p300 (AA 323-423); made in house; host or cells: E. coli (pETDuet vector)
How it was run: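 In this TR-FRET displacement format, peptides compete HIF1α C-terminal transactivation domain off p300-CH. They were preincubated 1 h at room temperature with 300 nM complex in HEPES pH 7.4/NaCl buffer with 7.5 mM CHAPS and 1 mM DTT. Anti-His-D2 (4 nM) and anti-Flag-K (0.5 μM) followed for 2 h, and a one-site fit of the fluorescence ratio gave IC50.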

HRE-bla ME-180 cells [2] = assay: Reporter gene assay (HRE-bla ME-180 HIF reporter, GeneBLAzer); assay type: cell-based, human; conditions: for EC50: 24 hour normoxia
How it was run: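 A FRET β-lactamase readout of HIF transcription was used. After compound treatment in 0.3% DMSO/media under normoxic conditions, 20 μl of 6× LiveBLAzer-FRET B/G (CCF4-AM) substrate was added. Plates sat 3 hr at room temperature in the dark and were read at 409 Ex/460Em and 409Ex/530Em on a Synergy 2. Inhibition was compared against DMSO vehicle controls, with chetomin as positive control.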

HRE-bla ME-180 cells [3] = assay: Cell proliferation assay (viability, MTT, 1% FBS); assay type: cell-based, human
How it was run: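 Viable cell number was measured with the CellTiter 96 (MTT) kit after compounds were applied for a 16 h normoxic (21% O2) pretreatment, followed by further normoxic or hypoxic (1% O2) culture. Cells: 2×10^4 ME-180 per well, Opti-MEM + 1% FBS, 0.5% DMSO vehicle.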

Compound | IC50 [1] [nM] | 18 h Avg % max inhibition at top conc (HIF Rptr-24 hrs normoxia) (μM) (HRE-bla ME-180 cells [2]) | EC50 (HRE-bla ME-180 cells [2]) [µM] | Viability 1% FBS AVG (MTT V3-24 hr Normoxia) (μM) (HRE-bla ME-180 cells [3])
CC[C@H](C)[C@H](NC(=O)[C@H](CCCNC(=N)N)NC(=O)[C@H](CC(=O)O)NC(=O)[C@H](CC(C)C)NC(=O)[C@H](C)NC(=O)[C@H](CCSC)NC(=O)[C@]1(C)CCCC=CCCC[C@](C)(NC(=O)[C@H](CCSC)NC(=O)[C@H](CC(C)C)NC(=O)[C@@H](NC(=O)[C@H](CCCCN)NC(=O)[C@H](CCC(=O)O)NC(=O)[C@H](CC(=O)O)NC(=O)[C@@H](NC(=O)[C@H](Cc2ccccc2)NC(C)=O)[C@@H](C)CC)C(C)C)C(=O)N[C@@H](CC(C)C)C(=O)N[C@@H](C(C)C)C(=O)N[C@@H]([C@@H](C)CC)C(=O)N1)C(N)=O [SP-283] (Ac-FIDEKVLM[S5]LVI[S5]MALDRI-NH2; staple 9-13) | > 700 | +++ (≤25 but <50: +++) | > 30 | ++++ (≥30: ++++)
CCCC[C@@H]1NC(=O)[C@H](CC(C)C)NC(=O)[C@H](CC(N)=O)NC(=O)[C@@](C)(NC(=O)[C@H](CCC(=O)O)NC(=O)[C@H](CC(=O)O)NC(=O)[C@@H](NC(=O)[C@H](Cc2ccccc2)NC(C)=O)[C@@H](C)CC)CCCC=CCCCC2(CCCC=CCCC[C@](C)(C(=O)N[C@@H](CCCC)C(=O)N[C@@H](C)C(=O)N[C@@H](CC(C)C)C(N)=O)NC(=O)[C@H]([C@@H](C)CC)NC(=O)[C@H](C(C)C)NC(=O)[C@H](CC(C)C)NC2=O)NC1=O (stereo partly shown) [SP-208] | > 700 | +++ (≤25 but <50: +++) | 5 to 15 | ++ (≤5 but <15: ++)
CC[C@H](C)[C@H](NC(=O)[C@H](CCCNC(=N)N)NC(=O)[C@H](CC(=O)O)NC(=O)[C@H](CC(C)C)NC(=O)[C@H](C)NC(=O)[C@H](CCSC)NC(=O)[C@H](CCC(=O)O)NC(=O)[C@@H](NC(=O)[C@@H](NC(=O)[C@H](CC(C)C)NC(=O)[C@]1(C)CCCC=CCCC[C@](C)(NC(=O)[C@H](CCC(=O)O)NC(=O)[C@H](CC(=O)O)NC(=O)[C@@H](NC(=O)[C@H](Cc2ccccc2)NC(C)=O)[C@@H](C)CC)C(=O)N[C@@H](C(C)C)C(=O)N[C@@H](CC(C)C)C(=O)N[C@@H](CCSC)C(=O)N1)C(C)C)[C@@H](C)CC)C(=O)N[C@@H](CCCCN)C(=O)N[C@@H](CCC(=O)O)C(N)=O [SP-113] (Ac-FIDE[S5]VLM[S5]LVIEMALDRIKE-NH2; staple 5-9) | 400 to 700 | ++++ (≥50: ++++) | 5 to 15 | ++++ (≥30: ++++)
CCCC[C@H](NC(=O)[C@H](Cc1ccccc1)NC(=O)[C@@H](NC(=O)[C@H](C)NC(=O)[C@H](CCC(N)=O)NC(=O)[C@H](CC(=O)O)NC(=O)[C@@H](NC(=O)[C@H](Cc1ccccc1)NC(C)=O)[C@@H](C)CC)C(C)C)C(=O)N[C@@]1(C)CCCC=CCCC[C@@](C)(C(=O)N[C@@H](Cc2c[nH]cn2)C(=O)N[C@@H](C)C(=O)N[C@@H](CC(C)C)C(=O)N[C@@H](CC(C)C)C(N)=O)NC(=O)[C@H]([C@@H](C)CC)NC(=O)[C@H](C(C)C)NC(=O)[C@H](CC(N)=O)NC1=O [SP-259] (Ac-FIDQAVF[Nle][S5]NVI[S5]HALL-NH2; staple 9-13) | > 700 | ++++ (≥50: ++++) | ≤ 5 | + (<5: +)
CC[C@H](C)[C@H](NC(=O)[C@H](CCCNC(=N)N)NC(=O)[C@H](CC(=O)O)NC(=O)[C@H](CC(C)C)NC(=O)[C@H](C)NC(=O)[C@H](CCSC)NC(=O)[C@]1(C)CCCC=CCCC[C@](C)(NC(=O)[C@H](CCSC)NC(=O)[C@H](Cc2ccccc2)NC(=O)[C@@H](NC(=O)[C@H](C)NC(=O)[C@H](CCC(N)=O)NC(=O)[C@H](CC(=O)O)NC(=O)[C@@H](NC(=O)[C@H](Cc2ccccc2)NC(C)=O)[C@@H](C)CC)C(C)C)C(=O)N[C@@H](CC(C)C)C(=O)N[C@@H](C(C)C)C(=O)N[C@@H]([C@@H](C)CC)C(=O)N1)C(N)=O [SP-268] (Ac-FIDQAVFM[S5]LVI[S5]MALDRI-NH2; staple 9-13) | > 700 | +++ (≤25 but <50: +++) | > 30 | ++++ (≥30: ++++)
CCCC[C@H](NC(=O)[C@H](Cc1ccccc1)NC(=O)[C@@H](NC(=O)[C@H](CCC(=O)O)NC(=O)[C@H](CCC(N)=O)NC(=O)[C@H](CC(=O)O)NC(=O)[C@@H](NC(=O)[C@H](Cc1ccccc1)NC(C)=O)[C@@H](C)CC)C(C)C)C(=O)N[C@@]1(C)CCCC=CCCC[C@@](C)(C(=O)N[C@@H](CCCC)C(=O)N[C@@H](C)C(=O)N[C@@H](CC(C)C)C(=O)N[C@@H](CC(=O)O)C(=O)N[C@@H](CCCNC(=N)N)C(=O)N[C@H](C(N)=O)[C@@H](C)CC)NC(=O)[C@H]([C@@H](C)CC)NC(=O)[C@H](C(C)C)NC(=O)[C@H](CC(C)C)NC1=O [SP-269] (Ac-FIDQEVF[Nle][S5]LVI[S5][Nle]ALDRI-NH2; staple 9-13) | 400 to 700 | +++ (≤25 but <50: +++) | 15 to 30 | ++++ (≥30: ++++)
CCCC[C@H](NC(=O)[C@H](CCC(=O)O)NC(=O)[C@@H](NC(=O)[C@@H](NC(=O)[C@H](CC(C)C)NC(=O)[C@]1(C)CCCC=CCCC[C@](C)(NC(=O)[C@H](CCC(=O)O)NC(=O)[C@H](CC(=O)O)NC(=O)[C@@H](NC(=O)[C@H](Cc2ccccc2)NC(=O)[C@H](CCCCN)NC(C)=O)[C@@H](C)CC)C(=O)N[C@@H](C(C)C)C(=O)N[C@@H](CC(C)C)C(=O)N[C@@H](CCCC)C(=O)N1)C(C)C)[C@@H](C)CC)C(=O)N[C@@H](C)C(=O)N[C@@H](CC(C)C)C(N)=O [SP-134] (Ac-KFIDE[S5]VL[Nle][S5]LVIE[Nle]AL-NH2; staple 6-10) | 200 to 400 | +++ (≤25 but <50: +++) | > 30 | ++++ (≥30: ++++)
CCCC[C@H](NC(=O)[C@H](CCC(=O)O)NC(=O)[C@@H](NC(=O)[C@@H](NC(=O)[C@H](CC(C)C)NC(=O)[C@]1(C)CCCC=CCCC[C@](C)(NC(=O)[C@H](CCC(=O)O)NC(=O)[C@H](CC(=O)O)NC(=O)[C@@H](NC(=O)[C@H](CC(N)=O)NC(=O)[C@@H](NC(=O)[C@H](CCC(N)=O)NC(=O)[C@H](CC(=O)O)NC(=O)[C@H](CC(C)C)NC(=O)[C@]2(C)CCCC=CCCC[C@](C)(NC(=O)[C@H](CCC(=O)O)NC(=O)CNC(=O)[C@H](CCC(N)=O)NC(=O)[C@H](CC(C)C)NC(=O)[C@H](CC(C)C)NC(C)=O)C(=O)N[C@@H](CC(C)C)C(=O)N[C@@H](CC(C)C)C(=O)N[C@@H](CCCNC(=N)N)C(=O)N2)C(C)C)[C@@H](C)CC)C(=O)N[C@@H](C(C)C)C(=O)N[C@@H](CC(C)C)C(=O)N[C@@H](CCCC)C(=O)N1)C(C)C)[C@@H](C)CC)C(=O)NCC(N)=O [SP-326] (Ac-LLQGE[S5]LLR[S5]LDQVNIDE[S5]VL[Nle][S5]LVIE[Nle]G-NH2; staple 6-10, 19-23) | > 700 | – | – | ++++ (≥30: ++++)
CC[C@H](C)[C@H](NC(=O)[C@H](CCCNC(=N)N)NC(=O)[C@H](CC(=O)O)NC(=O)[C@H](CC(C)C)NC(=O)[C@H](C)NC(=O)[C@H](CCSC)NC(=O)[C@]1(C)CCCC=CCCC[C@](C)(NC(=O)[C@H](CCSC)NC(=O)[C@H](CC(C)C)NC(=O)[C@@H](NC(=O)[C@H](C)NC(=O)[C@H](CCC(=O)O)NC(=O)[C@H](CC(=O)O)NC(=O)[C@@H](NC(=O)[C@H](Cc2ccccc2)NC(C)=O)[C@@H](C)CC)C(C)C)C(=O)N[C@@H](CC(C)C)C(=O)N[C@@H](C(C)C)C(=O)N[C@@H]([C@@H](C)CC)C(=O)N1)C(N)=O [SP-266] (Ac-FIDEAVLM[S5]LVI[S5]MALDRI-NH2; staple 9-13) | 200 to 400 | – | – | ++++ (≥30: ++++)
CC[C@H](C)[C@H](NC(=O)[C@H](Cc1ccccc1)NC(C)=O)C(=O)N[C@@H](CC(=O)O)C(=O)N[C@@H](CCC(=O)O)C(=O)N[C@@H](CCC(=O)O)C(=O)N[C@H](C(=O)N[C@@H](CC(C)C)C(=O)N[C@@H](CCSC)C(=O)N[C@@]1(C)CCCC=CCCC[C@@](C)(C(=O)N[C@@H](CCSC)C(=O)N[C@@H](C)C(=O)N[C@@H](CC(C)C)C(N)=O)NC(=O)[C@H]([C@@H](C)CC)NC(=O)[C@H](C(C)C)NC(=O)[C@H](CC(C)C)NC1=O)C(C)C [SP-7] (Ac-FIDEEVLM[S5]LVI[S5]MAL-NH2; staple 9-13) | 400 to 700 | – | – | ++++ (≥30: ++++)

— patent US20190225650A1, “PEPTIDOMIMETIC MACROCYCLES AND USE THEREOF IN REGULATING HIF1ALPHA” (AILERON THERAPEUTICS, INC., priority 2013, published 2019)
